Patent US10501516B2, “Peptide compound” (TAKEDA PHARMACEUTICAL COMPANY LIMITED, priority 2016, dated 2019)
Square brackets hold non-standard residues; d marks the D form. Side chains are listed from the residue outwards. Peptide text beside a SMILES is read from it. * marks the point of attachment. C18 diacid = O=C(O)CCCCCCCCCCCCCCCCC(=O)*; NMeY = CN[C@@H](Cc1ccc(O)cc1)C(=O)O; Palmitoyl = CCCCCCCCCCCCCCCC(=O)*; αMeF = C[C@](N)(Cc1ccccc1)C(=O)O; Iva = CC[C@](C)(N)C(=O)O; Aib = CC(C)(N)C(=O)O

What follows are compounds tested on male C57BL/6J mouse (assay: Evaluation of feeding suppressive action in mice). Conditions: 30 nmol/kg s.c. once a day for 3 days; 3-days cumulative food consumption vs solvent control.
Format: in vivo
Method: The feeding suppressive activity of a test compound was examined by the method described below.
The test compound was dissolved at a concentration of 30 or 100 nmol/2 mL in a solvent (10% DMSO-containing physiological saline). The test compound solution was subcutaneously administered at a dose of 2 mL/kg to the back of each male C57BL/6J mouse at 8-9 weeks of age (20-26° C., allowed to take food and water ad libitum; raised in the 12-hour bright-12-hour dark cycle). The administration was performed once a day for 3 days. After the administration, the mouse was individually raised in a rearing cage, and given previously weighed food; food consumption for 3 days after the start of administration was measured. The food consumption was calculated by subtracting the amount of remaining food from the weight of the food given on the day of the start of administration. When the food consumption of a control group receiving administration of the solvent alone was regarded as a suppression rate of 0%, the feeding suppressive activity of each test compound was evaluated on the basis of 3-days cumulative food consumption after the start of administration. The food intake suppression rate (%) of the test compound was defined as (Food consumption of the control group−Food consumption of the test compound-administered group)/Food consumption of the control group×100.

SMILES	Rate of feeding suppression (%)
CCCCCCCCCCCCCCCC(=O)NCC(=O)NCC(=O)NCC(=O)NCC(=O)NCCCC[C@H](NC(=O)[C@H](CC(=O)O)NC(=O)[C@H](CO)NC(=O)[C@@H](NC(=O)[C@](C)(Cc1ccccc1)NC(=O)[C@@H](NC(=O)CNC(=O)[C@H](CCC(=O)O)NC(=O)C(C)(C)NC(=O)[C@@H](N)Cc1ccc(O)cc1)[C@@H](C)O)[C@@H](C)O)C(=O)NC(C)(C)C(=O)N[C@H](C(=O)NC(C)(C)C(=O)N[C@@H](CC(C)C)C(=O)N[C@@H](CCC(=O)O)C(=O)N[C@@H](CCCCN)C(=O)N[C@@H](CCC(N)=O)C(=O)N[C@@H](CCCNC(=N)N)C(=O)N[C@@H](CCC(N)=O)C(=O)N[C@@](C)(CC)C(=O)N[C@@H](CCC(=O)O)C(=O)N[C@@H](Cc1ccccc1)C(=O)N[C@H](C(=O)N[C@@H](CCCNC(=N)N)C(=O)N[C@@H](Cc1c[nH]cn1)C(=O)N[C@@H](CC(C)C)C(=O)N[C@@H](CC(C)C)C(=O)N[C@@H](CC(N)=O)C(=O)N[C@@H](CCCCN)C(=O)NC(C)(C)C(=O)N[C@H](C(=O)N[C@@H](CCCNC(=N)N)C(=O)N[C@@H](CCC(N)=O)C(=O)N[C@@H](CCCNC(=N)N)C(=O)N[C@@H](Cc1ccc(O)cc1)C(N)=O)[C@@H](C)O)C(C)C)[C@@H](C)CC [Example 31] (H-Y[Aib]EGT[αMeF]TSDK([Gly-Gly-Gly-Gly-Palmitoyl])[Aib]I[Aib]LEKQRQ[Iva]EFVRHLLNK[Aib]TRQRY-NH2)	−56.8
CC[C@H](C)[C@H](NC(=O)C(C)(C)NC(=O)[C@H](CCCCNC(=O)CNC(=O)CNC(=O)CNC(=O)CNC(=O)CCCCCCCCCCCCCCCCC(=O)O)NC(=O)[C@H](CC(=O)O)NC(=O)[C@H](CO)NC(=O)[C@@H](NC(=O)[C@](C)(Cc1ccccc1)NC(=O)[C@@H](NC(=O)CNC(=O)[C@H](CCC(=O)O)NC(=O)C(C)(C)NC(=O)[C@@H](N)Cc1ccc(O)cc1)[C@@H](C)O)[C@@H](C)O)C(=O)NC(C)(C)C(=O)N[C@@H](CC(C)C)C(=O)N[C@@H](CCC(=O)O)C(=O)N[C@@H](CCCCN)C(=O)N[C@@H](CCC(N)=O)C(=O)N[C@@H](CCCNC(=N)N)C(=O)N[C@@H](CCC(N)=O)C(=O)N[C@@](C)(CC)C(=O)N[C@@H](CCC(=O)O)C(=O)N[C@@H](Cc1ccccc1)C(=O)N[C@H](C(=O)N[C@@H](CCCNC(=N)N)C(=O)N[C@@H](Cc1c[nH]cn1)C(=O)N[C@@H](CC(C)C)C(=O)N[C@@H](CC(C)C)C(=O)N[C@@H](CC(N)=O)C(=O)N[C@@H](CCCCN)C(=O)NC(C)(C)C(=O)N[C@H](C(=O)N[C@@H](CCCNC(=N)N)C(=O)N[C@@H](CCC(N)=O)C(=O)N[C@@H](CCCNC(=N)N)C(=O)N[C@@H](Cc1ccc(O)cc1)C(N)=O)[C@@H](C)O)C(C)C [Example 32] (H-Y[Aib]EGT[αMeF]TSDK([Gly-Gly-Gly-Gly-C18 diacid])[Aib]I[Aib]LEKQRQ[Iva]EFVRHLLNK[Aib]TRQRY-NH2)	−51.0
CCCCCCCCCCCCCCCC(=O)NCC(=O)NCC(=O)NCC(=O)NCC(=O)NCCCC[C@H](NC(=O)[C@H](CC(=O)O)NC(=O)[C@H](CO)NC(=O)[C@@H](NC(=O)[C@](C)(Cc1ccccc1)NC(=O)[C@@H](NC(=O)CNC(=O)[C@H](CCC(=O)O)NC(=O)C(C)(C)NC(=O)[C@@H](N)Cc1ccc(O)cc1)[C@@H](C)O)[C@@H](C)O)C(=O)N[C@@H](C)C(=O)N[C@H](C(=O)NC(C)(C)C(=O)N[C@@H](CC(C)C)C(=O)N[C@@H](CCC(=O)O)C(=O)N[C@@H](CCCCN)C(=O)N[C@@H](CCC(N)=O)C(=O)N[C@@H](CCCNC(=N)N)C(=O)N[C@@H](CCC(N)=O)C(=O)N[C@@](C)(CC)C(=O)N[C@@H](CCC(=O)O)C(=O)N[C@@H](Cc1ccccc1)C(=O)N[C@H](C(=O)N[C@@H](CCCNC(=N)N)C(=O)N[C@@H](Cc1c[nH]cn1)C(=O)N[C@@H](CC(C)C)C(=O)N[C@@H](CC(C)C)C(=O)N[C@@H](CC(N)=O)C(=O)N[C@@H](CCCCN)C(=O)NC(C)(C)C(=O)N[C@H](C(=O)N[C@@H](CCCNC(=N)N)C(=O)N[C@@H](CCC(N)=O)C(=O)N[C@@H](CCCNC(=N)N)C(=O)N[C@@H](Cc1ccc(O)cc1)C(N)=O)[C@@H](C)O)C(C)C)[C@@H](C)CC [Example 35] (H-Y[Aib]EGT[αMeF]TSDK([Gly-Gly-Gly-Gly-Palmitoyl])AI[Aib]LEKQRQ[Iva]EFVRHLLNK[Aib]TRQRY-NH2)	−52.6
CCCCCCCCCCCCCCCC(=O)NCC(=O)NCC(=O)NCC(=O)NCC(=O)NCCCC[C@H](NC(=O)[C@H](CC(=O)O)NC(=O)[C@H](CO)NC(=O)[C@@H](NC(=O)[C@](C)(Cc1ccccc1)NC(=O)[C@@H](NC(=O)CNC(=O)[C@H](CCC(=O)O)NC(=O)C(C)(C)NC(=O)[C@H](Cc1ccc(O)cc1)NC)[C@@H](C)O)[C@@H](C)O)C(=O)N[C@@H](C)C(=O)N[C@H](C(=O)NC(C)(C)C(=O)N[C@@H](CC(C)C)C(=O)N[C@@H](CCC(=O)O)C(=O)N[C@@H](CCCCN)C(=O)N[C@@H](CCC(N)=O)C(=O)N[C@@H](CCCNC(=N)N)C(=O)N[C@@H](CCC(N)=O)C(=O)N[C@@](C)(CC)C(=O)N[C@@H](CCC(=O)O)C(=O)N[C@@H](Cc1ccccc1)C(=O)N[C@H](C(=O)N[C@@H](CCCNC(=N)N)C(=O)N[C@@H](Cc1c[nH]cn1)C(=O)N[C@@H](CC(C)C)C(=O)N[C@@H](CC(C)C)C(=O)N[C@@H](CC(N)=O)C(=O)N[C@@H](CCCCN)C(=O)NC(C)(C)C(=O)N[C@H](C(=O)N[C@@H](CCCNC(=N)N)C(=O)N[C@@H](CCC(N)=O)C(=O)N[C@@H](CCCNC(=N)N)C(=O)N[C@@H](Cc1ccc(O)cc1)C(N)=O)[C@@H](C)O)C(C)C)[C@@H](C)CC [Example 37] (H-[NMeY][Aib]EGT[αMeF]TSDK([Gly-Gly-Gly-Gly-Palmitoyl])AI[Aib]LEKQRQ[Iva]EFVRHLLNK[Aib]TRQRY-NH2)	−54.9
